Laboratory results from US10280170B2, “Substituted 4,5,6,7-tetrahydro-pyrazolo[1,5-a]pyrazine derivatives and 5,6,7,8-tetrahydro-4H-pyrazolo[1,5-a][1,4]diazepine derivatives as Ros1 inhibitors” (Janssen Pharmaceutica NV, priority 2014, dated 2019).
Read-outs that look alike come from different tables or passages of the source.

Assays:
[1] = target: Ba/F3 cells containing Ros1 with a mutation at the gatekeeper residue (L2026M) (Homo sapiens, UniProt P08922, L2026M, cells depend on it, form not given); test: Ba/F3-Ros1 cell proliferation assay, L2026M gatekeeper mutant; format: cell-based, murine; settings: without IL-3
Outline: (§1)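 Ba/F3 cells expressing wild-type, L2026M or G2032R Ros1 (20000 per well) were incubated with DMSO-solubilized compounds in phenol red-free RPMI-1640 with 10% FBS and 2 mM L-glutamine at 37 °C, 5% CO2 for 24 hours. Viability was then read by Alamar Blue fluorescence (ex 540/em 590 nm) after 4 h.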

Ros1 enzyme = target: T1, Ros1 enzyme (Homo sapiens, UniProt P08922); test: Ros1 enzymatic assay; format: biochemical; settings: Ros1 enzymatic assay; read-out: ROS1 pIC50 (converted)
T1 construct: 0.5 μg/ml Ros1 enzyme
Outline: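 Peptide phosphorylation by Ros1 is measured by 33P transfer from 20 μM ATP (as prepared in substrate mix) over 2 h at ambient temperature, pH 7.5 with Mg2+.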

[2] = test system: HCC78 non-small cell lung cancer cells; test: HCC78 cell proliferation assay; format: cell-based; settings: for EC50: Homo sapiens, HCC78, 96 h, read-out: HCC-78 PROL pEC50 (converted)
Outline: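 HCC78 NSCLC cells (~1000/well) in RPMI-1640 with 10% FBS were treated 24 h after seeding and exposed to compound for 4 days at 37 °C. Viability was read by MTT, with absorbance at 538 nm after DMSO/glycine solubilization.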

[3] = test system: Ba/F3 cells containing Ros1 wild-type protein + IL-3; test: Ba/F3-Ros1 cell proliferation counter-screen, wild-type protein in the presence of 10 ng/ml murine IL-3; format: cell-based; settings: Mus musculus, BaF3, 24 h, read-out: BaF3-ROS1 + IL3 pIC50 (converted)
Outline: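 Proliferation of IL-3-supplemented (10 ng/ml, murine) Ba/F3 cells bearing wild-type Ros1 is measured after 24 h compound treatment. Alamar Blue conversion over 4 h gives fluorescence at 590 nm.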

[4] = target: T2, Ba/F3 cells containing Ros1 wild-type protein (Homo sapiens, UniProt P08922, cells depend on it, form not given); test: Ba/F3-Ros1 cell proliferation assay, wild-type Ros1; format: cell-based, murine; settings: without IL-3
T2 construct: The background only speaks of 'a number of different unrelated proteins' and names SLC34A2-ROS1 for HCC78 cells
Outline: as §1

[5] = counter-screen, wild-type, 10 ng/ml murine IL-3

T2 sequence (P08922 whole entry, stated change not applied): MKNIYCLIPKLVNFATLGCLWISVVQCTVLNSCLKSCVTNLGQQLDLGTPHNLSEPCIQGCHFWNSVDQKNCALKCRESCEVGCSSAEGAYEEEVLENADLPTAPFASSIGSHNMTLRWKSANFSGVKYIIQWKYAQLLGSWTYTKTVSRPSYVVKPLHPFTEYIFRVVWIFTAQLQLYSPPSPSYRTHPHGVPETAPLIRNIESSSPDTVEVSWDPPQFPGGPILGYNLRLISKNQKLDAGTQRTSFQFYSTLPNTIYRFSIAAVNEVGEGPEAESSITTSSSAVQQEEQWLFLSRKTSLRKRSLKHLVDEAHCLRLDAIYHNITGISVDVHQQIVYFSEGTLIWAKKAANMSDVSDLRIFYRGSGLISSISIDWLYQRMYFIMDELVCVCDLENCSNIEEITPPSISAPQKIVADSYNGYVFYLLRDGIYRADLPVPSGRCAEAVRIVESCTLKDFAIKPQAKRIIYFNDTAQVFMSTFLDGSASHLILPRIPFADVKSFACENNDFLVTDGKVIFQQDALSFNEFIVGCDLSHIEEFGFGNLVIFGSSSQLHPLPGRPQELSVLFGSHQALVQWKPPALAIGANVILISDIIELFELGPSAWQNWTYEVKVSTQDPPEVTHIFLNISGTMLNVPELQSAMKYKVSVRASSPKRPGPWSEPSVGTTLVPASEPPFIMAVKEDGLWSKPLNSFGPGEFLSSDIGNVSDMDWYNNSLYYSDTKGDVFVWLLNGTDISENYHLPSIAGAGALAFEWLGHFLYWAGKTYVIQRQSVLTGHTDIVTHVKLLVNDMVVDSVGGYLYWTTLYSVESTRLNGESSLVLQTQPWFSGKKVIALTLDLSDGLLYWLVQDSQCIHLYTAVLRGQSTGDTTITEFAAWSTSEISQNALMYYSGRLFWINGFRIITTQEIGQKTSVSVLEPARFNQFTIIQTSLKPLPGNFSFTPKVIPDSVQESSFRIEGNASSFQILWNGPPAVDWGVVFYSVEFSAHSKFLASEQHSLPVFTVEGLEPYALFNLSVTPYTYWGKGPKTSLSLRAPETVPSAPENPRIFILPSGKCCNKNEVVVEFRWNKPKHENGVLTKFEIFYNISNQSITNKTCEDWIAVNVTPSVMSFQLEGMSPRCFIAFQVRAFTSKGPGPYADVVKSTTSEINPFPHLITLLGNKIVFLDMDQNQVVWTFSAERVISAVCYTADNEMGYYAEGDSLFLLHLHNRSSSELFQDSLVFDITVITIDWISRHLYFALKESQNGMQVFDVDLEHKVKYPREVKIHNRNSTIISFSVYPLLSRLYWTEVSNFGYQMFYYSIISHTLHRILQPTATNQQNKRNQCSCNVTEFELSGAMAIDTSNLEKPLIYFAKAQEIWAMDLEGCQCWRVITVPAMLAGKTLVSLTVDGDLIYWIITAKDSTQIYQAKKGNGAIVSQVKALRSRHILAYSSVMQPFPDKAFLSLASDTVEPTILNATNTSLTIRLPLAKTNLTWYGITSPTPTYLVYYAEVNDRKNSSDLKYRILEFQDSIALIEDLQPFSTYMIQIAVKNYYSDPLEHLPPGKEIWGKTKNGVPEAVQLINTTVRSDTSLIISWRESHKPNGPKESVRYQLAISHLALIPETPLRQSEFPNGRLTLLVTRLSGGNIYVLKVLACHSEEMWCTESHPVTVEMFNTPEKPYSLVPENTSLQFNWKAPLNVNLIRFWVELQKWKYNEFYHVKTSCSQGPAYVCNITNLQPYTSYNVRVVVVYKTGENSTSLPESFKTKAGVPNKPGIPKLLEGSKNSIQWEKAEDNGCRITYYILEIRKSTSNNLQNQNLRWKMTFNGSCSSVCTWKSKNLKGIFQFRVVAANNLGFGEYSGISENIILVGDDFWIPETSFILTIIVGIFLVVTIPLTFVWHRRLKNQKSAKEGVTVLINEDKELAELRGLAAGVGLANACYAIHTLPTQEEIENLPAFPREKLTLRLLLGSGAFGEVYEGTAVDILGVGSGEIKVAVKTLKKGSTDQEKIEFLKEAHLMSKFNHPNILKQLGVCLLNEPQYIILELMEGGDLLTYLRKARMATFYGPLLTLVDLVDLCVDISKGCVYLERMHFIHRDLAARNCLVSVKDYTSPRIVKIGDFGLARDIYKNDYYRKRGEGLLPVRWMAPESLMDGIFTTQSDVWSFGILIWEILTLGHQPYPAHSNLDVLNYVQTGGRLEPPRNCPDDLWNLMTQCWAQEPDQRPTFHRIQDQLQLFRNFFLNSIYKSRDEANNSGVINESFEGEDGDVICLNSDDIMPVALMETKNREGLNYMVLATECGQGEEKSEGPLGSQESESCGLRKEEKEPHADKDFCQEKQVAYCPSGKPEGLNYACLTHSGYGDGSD
Chain of Ba/F3 cells containing Ros1 with a mutation at the gatekeeper residue (L2026M) (P08922 whole entry L2026M, form open): as the sequence (P08922 whole entry, stated change not applied) above, with L2026M counted along it
T1 sequence (P08922 28-2347): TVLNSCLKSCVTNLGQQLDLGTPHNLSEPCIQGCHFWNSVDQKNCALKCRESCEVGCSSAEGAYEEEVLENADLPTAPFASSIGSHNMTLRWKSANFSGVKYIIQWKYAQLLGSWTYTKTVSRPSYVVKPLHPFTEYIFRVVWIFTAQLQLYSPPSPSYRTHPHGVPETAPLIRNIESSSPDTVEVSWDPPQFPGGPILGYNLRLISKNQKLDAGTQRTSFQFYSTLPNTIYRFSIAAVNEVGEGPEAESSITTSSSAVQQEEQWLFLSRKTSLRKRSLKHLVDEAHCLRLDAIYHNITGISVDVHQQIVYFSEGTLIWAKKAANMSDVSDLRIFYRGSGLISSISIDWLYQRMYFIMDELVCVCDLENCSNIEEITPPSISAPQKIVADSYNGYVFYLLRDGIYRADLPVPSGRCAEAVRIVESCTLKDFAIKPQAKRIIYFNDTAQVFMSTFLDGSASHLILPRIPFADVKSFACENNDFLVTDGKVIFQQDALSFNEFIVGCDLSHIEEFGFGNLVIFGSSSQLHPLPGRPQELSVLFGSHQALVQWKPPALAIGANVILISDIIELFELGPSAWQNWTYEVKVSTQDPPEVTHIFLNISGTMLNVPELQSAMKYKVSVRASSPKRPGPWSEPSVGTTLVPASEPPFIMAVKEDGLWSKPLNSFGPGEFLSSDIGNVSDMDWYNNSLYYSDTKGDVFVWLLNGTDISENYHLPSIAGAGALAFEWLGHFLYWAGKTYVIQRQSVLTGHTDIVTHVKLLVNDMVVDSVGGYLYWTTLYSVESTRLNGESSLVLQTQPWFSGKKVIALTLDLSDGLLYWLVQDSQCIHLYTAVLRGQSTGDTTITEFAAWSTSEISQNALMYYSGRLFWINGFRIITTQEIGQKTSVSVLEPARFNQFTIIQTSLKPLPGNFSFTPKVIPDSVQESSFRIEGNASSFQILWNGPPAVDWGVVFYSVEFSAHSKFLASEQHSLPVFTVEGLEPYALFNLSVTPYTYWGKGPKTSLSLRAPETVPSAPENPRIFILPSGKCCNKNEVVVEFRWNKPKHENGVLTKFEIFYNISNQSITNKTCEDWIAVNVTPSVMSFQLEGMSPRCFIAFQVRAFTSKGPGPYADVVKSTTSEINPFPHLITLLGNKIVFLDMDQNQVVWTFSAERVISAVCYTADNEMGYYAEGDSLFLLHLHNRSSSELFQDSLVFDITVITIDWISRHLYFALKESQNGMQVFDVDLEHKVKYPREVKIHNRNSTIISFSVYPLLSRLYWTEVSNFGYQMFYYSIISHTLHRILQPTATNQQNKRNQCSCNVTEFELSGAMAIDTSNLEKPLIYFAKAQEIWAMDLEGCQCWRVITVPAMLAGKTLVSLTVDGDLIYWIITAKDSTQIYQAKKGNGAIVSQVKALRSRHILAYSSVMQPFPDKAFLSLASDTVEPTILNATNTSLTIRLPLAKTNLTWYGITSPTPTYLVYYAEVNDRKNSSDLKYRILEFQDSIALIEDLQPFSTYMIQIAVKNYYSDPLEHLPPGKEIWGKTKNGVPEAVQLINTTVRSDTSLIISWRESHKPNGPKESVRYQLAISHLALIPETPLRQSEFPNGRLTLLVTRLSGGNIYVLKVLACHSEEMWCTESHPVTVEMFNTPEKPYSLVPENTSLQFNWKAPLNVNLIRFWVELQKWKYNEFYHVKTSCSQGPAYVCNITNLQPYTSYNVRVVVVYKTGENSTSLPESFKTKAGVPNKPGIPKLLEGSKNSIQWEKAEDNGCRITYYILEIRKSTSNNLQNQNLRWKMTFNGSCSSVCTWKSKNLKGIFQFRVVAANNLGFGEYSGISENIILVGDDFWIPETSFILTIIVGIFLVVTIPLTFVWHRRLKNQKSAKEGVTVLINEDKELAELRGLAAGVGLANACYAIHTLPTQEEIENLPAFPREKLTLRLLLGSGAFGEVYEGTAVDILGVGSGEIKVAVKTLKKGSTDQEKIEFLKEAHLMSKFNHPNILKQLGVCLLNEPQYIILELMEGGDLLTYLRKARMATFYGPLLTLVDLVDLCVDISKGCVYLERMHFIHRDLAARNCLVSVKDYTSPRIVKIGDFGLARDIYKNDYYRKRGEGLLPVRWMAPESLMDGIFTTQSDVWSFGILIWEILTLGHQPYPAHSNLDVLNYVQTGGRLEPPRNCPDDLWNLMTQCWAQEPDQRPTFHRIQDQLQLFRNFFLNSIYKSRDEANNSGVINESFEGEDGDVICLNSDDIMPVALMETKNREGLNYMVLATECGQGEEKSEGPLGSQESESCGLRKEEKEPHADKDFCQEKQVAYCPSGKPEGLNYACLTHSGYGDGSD

SMILES	Ba/F3 Ros1 L2026M (-IL-3) pIC50 [1]	IC50 (Ros1 enzyme) [nM]	melting point [°C]	EC50 [2] [nM]	CC50 [3] [nM]	BaF3-ROS1-IL3 pIC50 [4]	EC50 ([2]; HCC78 cells, 4 days, MTT) [nM]	CC50 [3, 5] [nM]	HCC-78 PROL pEC50 ([2]; HCC78 cells, 4 days, MTT)
CCC(C)c1ccc(COc2ccc(-c3c(-c4ccncc4)nn4c3C(=O)N(CCO)CC4)cc2)cc1 (stereo not drawn) [Compound 107]	7.4	20	163	79.4	> 10000	7.7	–	–	–
CC(C)Cc1ccc(COc2ccc(-c3c(-c4ccncc4)nn4c3C(=O)N(CCO)CC4)cc2)cc1 [Compound 109]	7.2	100	155	398	> 10000	7.1	–	–	–
CC(C)(O)c1ccc(COc2ccc(-c3c(-c4ccncc4)nn4c3C(=O)N(CCO)CC4)cc2)cc1 [Compound 115]	<5	1260	193	1580	> 10000	6.3	–	–	–
O=C1c2c(-c3ccc(OCc4ccc(OC(F)(F)F)cc4)cc3)c(-c3ccncc3)nn2CCN1CCO [Compound 117]	6.9	126	134	251	> 10000	7.0	–	–	–
CC(C)(C#N)c1ccc(COc2ccc(-c3c(-c4ccncc4)nn4c3C(=O)N(CCO)CC4)cc2)cc1 [Compound 122]	7.1	126	199	63.1	> 10000	6.9	–	–	–
N#CC1(c2ccc(COc3ccc(-c4c(-c5ccncc5)nn5c4C(=O)NCC5)cc3)cc2)CC1 [Compound 123]	7.1	39.8	260	398	> 10000	7.4	–	–	–
COCC(C)(C)c1ccc(COc2ccc(-c3c(-c4ccncc4)nn4c3C(=O)NCC4)cc2)cc1 [Compound 126]	6.6	200	212	1260	> 10000	6.9	–	–	–
O=C1c2c(-c3ccc(OCc4ccc(C5CC5)cc4)cc3)c(-c3ccncc3)nn2CCN1CCO [Compound 129]	7.0	63.1	194	100	> 10000	7.4	–	–	–
CC(O)CN1CCn2nc(-c3ccncc3)c(-c3ccc(OCc4ccc(C5CC5)cc4)cc3)c2C1=O (stereo not drawn) [Compound 134]	7.0	79.4	196	–	–	7.3	200	> 10000	–
O=C1c2c(-c3ccc(OCc4ccc(C5CC5)cc4F)cc3)c(-c3ccncc3)nn2CCN1CCO [Compound 136]	6.6	63.1	183	316	> 10000	7.1	–	–	–
O=C1c2c(-c3ccc(OCc4ccc(C5CC5)c(F)c4)cc3)c(-c3ccncc3)nn2CCN1CCO [Compound 137]	6.4	126	185	398	> 10000	6.8	–	–	–
O=C1c2c(-c3ccc(OCc4ccc(C5CC5)nc4)cc3)c(-c3ccncc3)nn2CCN1CCO [Compound 139]	6.0	126	97	100	> 10000	6.8	–	–	–
CC(C)c1ccc(C(C)Oc2ccc(-c3c(-c4ccncc4)nn4c3C(=O)N(CCO)CC4)cc2)cc1 (stereo not drawn) [Compound 144]	5.7	1260	148	–	–	6.3	–	> 10000	5.0
CC(C)c1ccc(C(CN)Oc2ccc(-c3c(-c4ccncc4)nn4c3C(=O)NCC4)cc2)cc1 (stereo not drawn) [Compound 147]	6.7	3980	178	3980	3980	5.4	–	–	–
CC(C)c1ccc(CC(=O)c2ccc(-c3c(-c4ccncc4)nn4c3C(=O)NCC4)cc2)cc1 [Compound 148]	5.9	6310	259	1580	> 10000	5.5	–	–	–
CC(C)c1ccc(COc2ccc(-c3c(-c4ccncc4F)nn4c3C(=O)NCC4)c(F)c2)cc1 [Compound 152]	8.1	10	262	63.1	> 10000	8.0	–	–	–
CC(C)c1ccc(COc2ccc(-c3c(-c4ccncc4C#N)nn4c3C(=O)NCC4)cc2)cc1 [Compound 153]	6.8	39.8	225	316	> 10000	7.5	–	–	–
CC(C)c1ccc(COc2ccc(-c3c(-c4ccncc4Cl)nn4c3C(=O)NCC4)cc2)cc1 [Compound 154]	7.1	100	207	316	> 10000	6.9	–	–	–
CC(C)c1ccc(COc2ccc(-c3c(-c4ccnc5[nH]ccc45)nn4c3C(=O)NCC4)cc2)cc1 [Compound 155]	7.5	31.6	266	79.4	> 10000	7.8	–	–	–
CC(C)c1ccc(COc2ccc(-c3c(-c4ccnc5[nH]ccc45)nn4c3C(=O)N(CCO)CC4)cc2)cc1 [Compound 156]	7.0	63.1	219	–	–	8.0	20	> 10000	–
CC(C)c1ccc(COc2ccc(-c3c(-c4ccncn4)nn4c3C(=O)N(CC(O)CO)CC4)cc2)cc1 (stereo not drawn) [Compound 161]	6.7	50.1	209	–	–	7.1	316	> 10000	–
O=C1c2c(-c3ccc(OCc4ccc(C5CC5)cc4)cc3)c(-c3ccncn3)nn2CCN1CCO [Compound 167]	6.2	126	170	501	> 10000	7.2	–	–	–
